This note sets out measurements from patent publication USRE50528E1, “Compounds and compositions for modulating EGFR mutant kinase activities” (Yuhan Corporation, priority 2014, dated 2025).

Bounds are passed on as bounds.

In assay [1] the test system is H1975 (EGFR L858R/T790M mutant). In words: Cell viability assay, H1975.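 Further: NSCLC cells whose survival relies on EGFR L858R/T790M, exposed 72 h to serially diluted compound, ATP-based viability readout, with the H2073 line (wildtype EGFR dependent) as wildtype comparator.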 In kind it is cell-based.
In the next assay the test system is H2073 (EGFR wildtype). In words: Cell viability assay, H2073.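 Further: NSCLC cell line whose survival relies on wildtype EGFR, treated with serially diluted compound, cytotoxic effect judged from remaining cell viability.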 It is filed as cell-based. To be noted: NCI-H2073; cellular potency; 72-hour incubation; ATPLite. On the technique in general: Cellular ATP, detected with luciferase, serves as a proxy for viable cell number.
For assay [2], the system named is PC9 (EGFR del E746-A750 mutant). Put plainly: Cell viability assay, PC9.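 Further: NSCLC PC9 cells, whose viability relies on EGFR del E746-A750, exposed to serially diluted compound for 72 h at 37 °C, ATPLite read-out, IC50, H2073 as EGFR wildtype line.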 In kind it is cell-based.
The target in another assay is T1, EGFR mutant Del19/T790M (Homo sapiens, UniProt P00533, DEL746-750/T790M).
T1 construct: truncated human JAK3, EGFR mutants such as del E746-A750; purchased Carna Biosciences
In words: Kinase inhibition assay, EGFR del E746-A750/T790M. In kind it is biochemical. To be noted: read-out: EGFR mutants Del19/T790M.

Assay [3] deals with T2, EGFR mutant Del19 (E746-A750) (Homo sapiens, UniProt P00533, DEL746-750).
T2 construct: truncated human JAK3, EGFR mutants such as del E746-A750; purchased Carna Biosciences
In words: Kinase inhibition assay, EGFR del E746-A750.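 Further: truncated human EGFR mutant kinase, two-hour preincubation with compound, then one-hour reaction with ATP and ULight-PolyGT peptide, LANCE Europium-antibody phosphorylation readout, IC50.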 It is filed as biochemical. The following applies: read-out: EGFR mutants Del19 (E746-A750).

The target in a further assay is T3, EGFR mutant T790M (Homo sapiens, UniProt P00533, T790M).
T3 construct: truncated human JAK3, EGFR mutants such as del E746-A750; purchased Carna Biosciences
Put plainly: Kinase inhibition assay, EGFR mutant T790M.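 Further: truncated human EGFR mutant enzyme preincubated two hours with compound, then ATP plus ULight-PolyGT peptide for one hour, Europium-labeled antibody LANCE detection, IC50.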 The following applies: biochemical potency.

A further assay deals with T4, EGFR mutant L858R (Homo sapiens, UniProt P00533, L858R).
T4 construct: truncated human JAK3, EGFR mutants such as del E746-A750; purchased Carna Biosciences
In words: Kinase inhibition assay, EGFR L858R.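 Further: truncated human EGFR L858R kinase with compound preincubation, ULight-PolyGT peptide phosphorylation read by Europium-antibody Lance detection, IC50.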 In kind it is biochemical. The following applies: read-out: EGFR mutants L858R.

For another assay, the target named is T5, SYK (Homo sapiens, UniProt P43405).
T5 construct: Purified human, full-length SYK, KDR; purchased Carna Biosciences
In words: Kinase inhibition assay, SYK.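 Further: purified full-length human SYK pre-incubated 30 min with compound, then ULight-TK peptide phosphorylation for 1 h, detected with Europium-labeled antibody in Lance buffer.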 It is filed as biochemical. To be noted: biochemical potency.

A further assay deals with T6, EGFR mutant L858R/T790M (Homo sapiens, UniProt P00533, L858R/T790M).
T6 construct: truncated human JAK3, EGFR mutants such as del E746-A750; purchased Carna Biosciences
Put plainly: Kinase inhibition assay, EGFR L858R/T790M.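 Further: truncated human enzyme preincubated two hours with compound, then one hour with one millimolar ATP and ULight-PolyGT peptide, Europium-labeled antibody detection, IC50.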 The following applies: read-out: EGFR mutants L858R/T790M. It is filed as biochemical.

T1 sequence (P00533 with tags, fused parts or gaps DEL746-750/T790M limits assumed): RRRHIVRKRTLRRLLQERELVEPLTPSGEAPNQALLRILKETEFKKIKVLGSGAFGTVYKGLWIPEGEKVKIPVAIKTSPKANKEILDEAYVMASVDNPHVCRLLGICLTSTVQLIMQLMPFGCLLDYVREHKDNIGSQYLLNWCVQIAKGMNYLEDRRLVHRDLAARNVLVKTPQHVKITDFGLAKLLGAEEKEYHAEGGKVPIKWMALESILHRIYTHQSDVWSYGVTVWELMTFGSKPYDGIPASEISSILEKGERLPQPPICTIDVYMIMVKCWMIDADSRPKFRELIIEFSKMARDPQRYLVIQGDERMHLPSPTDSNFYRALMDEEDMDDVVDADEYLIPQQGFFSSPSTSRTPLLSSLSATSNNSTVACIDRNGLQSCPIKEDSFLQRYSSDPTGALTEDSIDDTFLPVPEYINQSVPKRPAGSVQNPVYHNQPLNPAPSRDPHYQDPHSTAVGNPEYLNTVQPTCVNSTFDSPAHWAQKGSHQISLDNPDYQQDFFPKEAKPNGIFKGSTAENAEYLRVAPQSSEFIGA
T4 sequence (P00533 669-1210 L858R limits assumed): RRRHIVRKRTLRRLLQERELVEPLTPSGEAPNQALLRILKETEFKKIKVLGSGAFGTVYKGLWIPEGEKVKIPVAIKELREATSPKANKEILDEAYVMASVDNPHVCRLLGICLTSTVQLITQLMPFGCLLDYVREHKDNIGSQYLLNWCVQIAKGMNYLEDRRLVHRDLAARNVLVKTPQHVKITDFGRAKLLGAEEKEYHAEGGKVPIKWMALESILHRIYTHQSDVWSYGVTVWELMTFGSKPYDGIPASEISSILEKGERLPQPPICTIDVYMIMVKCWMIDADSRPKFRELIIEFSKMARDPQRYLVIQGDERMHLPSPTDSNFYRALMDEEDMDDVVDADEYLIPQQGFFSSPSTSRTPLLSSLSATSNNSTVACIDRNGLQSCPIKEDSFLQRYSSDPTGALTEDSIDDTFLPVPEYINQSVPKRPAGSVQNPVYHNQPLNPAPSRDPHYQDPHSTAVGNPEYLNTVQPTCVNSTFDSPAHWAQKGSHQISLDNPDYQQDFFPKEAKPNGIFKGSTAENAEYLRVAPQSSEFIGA
T3 sequence (P00533 669-1210 T790M limits assumed): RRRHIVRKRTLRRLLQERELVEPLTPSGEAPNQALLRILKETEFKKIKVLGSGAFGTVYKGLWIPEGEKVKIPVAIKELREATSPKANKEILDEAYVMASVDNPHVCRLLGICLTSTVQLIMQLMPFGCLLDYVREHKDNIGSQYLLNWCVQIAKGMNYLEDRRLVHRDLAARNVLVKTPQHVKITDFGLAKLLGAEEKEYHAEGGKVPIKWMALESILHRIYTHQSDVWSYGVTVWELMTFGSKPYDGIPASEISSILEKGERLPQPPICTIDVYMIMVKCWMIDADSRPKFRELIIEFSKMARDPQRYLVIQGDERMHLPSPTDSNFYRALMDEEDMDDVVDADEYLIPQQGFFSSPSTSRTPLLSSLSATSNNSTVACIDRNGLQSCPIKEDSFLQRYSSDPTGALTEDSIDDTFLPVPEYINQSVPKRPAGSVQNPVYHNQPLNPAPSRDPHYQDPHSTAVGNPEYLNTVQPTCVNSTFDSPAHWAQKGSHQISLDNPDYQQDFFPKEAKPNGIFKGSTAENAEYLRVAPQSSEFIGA
T6 sequence (P00533 669-1210 T790M/L858R limits assumed): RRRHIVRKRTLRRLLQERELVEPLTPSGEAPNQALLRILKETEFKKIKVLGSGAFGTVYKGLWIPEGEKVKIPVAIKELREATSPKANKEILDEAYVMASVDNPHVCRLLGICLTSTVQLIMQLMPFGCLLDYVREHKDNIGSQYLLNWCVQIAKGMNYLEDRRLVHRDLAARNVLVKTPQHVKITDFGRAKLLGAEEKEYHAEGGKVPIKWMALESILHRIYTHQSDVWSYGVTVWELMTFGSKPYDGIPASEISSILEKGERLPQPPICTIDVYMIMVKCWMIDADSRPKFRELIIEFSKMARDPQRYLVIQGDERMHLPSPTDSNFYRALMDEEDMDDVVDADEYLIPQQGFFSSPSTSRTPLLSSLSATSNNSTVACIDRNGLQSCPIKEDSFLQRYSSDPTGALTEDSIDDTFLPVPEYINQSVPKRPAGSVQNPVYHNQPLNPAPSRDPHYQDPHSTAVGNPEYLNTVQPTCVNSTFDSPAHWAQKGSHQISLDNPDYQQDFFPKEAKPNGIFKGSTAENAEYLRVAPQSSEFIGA
T2 sequence (P00533 with tags, fused parts or gaps DEL746-750 limits assumed): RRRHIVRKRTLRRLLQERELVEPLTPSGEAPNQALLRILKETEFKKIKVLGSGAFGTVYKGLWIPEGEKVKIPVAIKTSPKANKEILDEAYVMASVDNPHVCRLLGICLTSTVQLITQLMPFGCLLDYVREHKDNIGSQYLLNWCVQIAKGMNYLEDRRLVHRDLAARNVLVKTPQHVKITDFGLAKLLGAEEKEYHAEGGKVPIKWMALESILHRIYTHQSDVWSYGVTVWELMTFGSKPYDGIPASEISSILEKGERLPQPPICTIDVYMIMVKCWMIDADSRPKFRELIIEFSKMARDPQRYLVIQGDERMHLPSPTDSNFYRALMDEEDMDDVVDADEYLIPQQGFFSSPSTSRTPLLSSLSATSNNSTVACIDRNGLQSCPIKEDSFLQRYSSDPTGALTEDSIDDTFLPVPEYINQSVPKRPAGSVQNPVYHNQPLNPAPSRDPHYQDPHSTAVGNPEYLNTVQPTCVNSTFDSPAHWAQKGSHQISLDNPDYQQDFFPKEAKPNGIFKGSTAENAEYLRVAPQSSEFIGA

Consider `C=CCC(=O)Nc1cc(Nc2nccc(-n3cc(CN(C)C)c(-c4ccccc4)n3)n2)c(OC)cc1N1CCOCC1` [Compound 154, N-(5-(4-(4-((dimethylamino)methyl)-3-phenyl-1H-pyrazol-1-yl)pyrimidin-2-ylamino)-4-methoxy-2-morpholinophenyl)but-3-enamide, reference compound], for which the IC50 is 0.201 to 1 µM in assay [1] (Homo sapiens, NCI-H1975, cellular potency, 72-hour incubation, ATPLite, read-out: EGFR Mutants H1975); > 1 µM in the assay on H2073 (EGFR wildtype); 0.02 to 0.2 µM in [2] (cellular potency, 72-hour incubation, ATPLite, read-out: EGFR Mutants PC9). In addition, the “Selectivity over wildtype, Wildtype vs mutant H2073/H1975 (fold)” value in assay [1] (cellular potency ratio) is <20 fold. Besides, in assay [2] (cellular potency ratio), the “Selectivity over wildtype, Wildtype vs mutant H2073/PC9 (fold)” value is listed as <20 fold.

Turning to `C=CC(=O)Nc1cc(Nc2nccc(-n3cc(CN(C)C)c(-c4cccs4)n3)n2)c(OC)cc1N1CCOCC1` [Compound 88, N-(5-(4-(4-((dimethylamino)methyl)-3-(thiophen-2-yl)-1H-pyrazol-1-yl)pyrimidin-2-ylamino)-4-methoxy-2-morpholinophenyl)acrylamide], the IC50 at EGFR mutant Del19/T790M was < 0.02 µM; in assay [3], < 0.02 µM; on EGFR mutant T790M it was < 0.02 µM; at EGFR mutant L858R it was < 0.02 µM; at SYK it was 0.201 to 1 µM; on EGFR mutant L858R/T790M, < 0.02 µM.

For the compound `C=CC(=O)Nc1cc(Nc2nccc(-n3cc(CN4C[C@H](O)[C@H](OC)C4)c(C)n3)n2)c(OC)cc1N1CCOCC1` [Compound 45, N-(5-(4-(4-(((3S,4R)-3-hydroxy-4-methoxypyrrolidin-1-yl)methyl)-3-methyl-1H-pyrazol-1-yl)pyrimidin-2-ylamino)-4-methoxy-2-morpholinophenyl)acrylamide], the IC50 is < 0.02 µM at EGFR mutant Del19/T790M; < 0.02 µM in [3]; 0.02 to 0.2 µM against EGFR mutant T790M; 0.02 to 0.2 µM on EGFR mutant L858R; > 1 µM at SYK; < 0.02 µM on EGFR mutant L858R/T790M.

For the compound `C=CC(=O)Nc1cc(Nc2ncc(Cl)c(-n3cc(CN(C)C)cn3)n2)c(OC)cc1N1CCOCC1` [Compound 77, N-(5-(5-chloro-4-(4-((dimethylamino)methyl)-1H-pyrazol-1-yl)pyrimidin-2-ylamino)-4-methoxy-2-morpholinophenyl)acrylamide], the IC50 was < 0.02 µM on EGFR mutant Del19/T790M; < 0.02 µM in [3]; < 0.02 µM on EGFR mutant T790M; < 0.02 µM on EGFR mutant L858R; 0.201 to 1 µM against SYK; < 0.02 µM on EGFR mutant L858R/T790M.

In the case of `C=CC(=O)Nc1cc(Nc2ncc(C)c(-n3cc(CN4CC(O)C4)c(C)n3)n2)c(OC)cc1N(C)CCN(C)C` [Compound 31, N-(2-((2-(dimethylamino)ethyl)(methyl)amino)-5-(4-(4-((3-hydroxyazetidin-1-yl)methyl)-3-methyl-1H-pyrazol-1-yl)-5-methylpyrimidin-2-ylamino)-4-methoxyphenyl)acrylamide], the IC50 on EGFR mutant Del19/T790M was < 0.02 µM; in assay [3] it was < 0.02 µM; on EGFR mutant T790M it was < 0.02 µM; on EGFR mutant L858R it was < 0.02 µM; on SYK, 0.02 to 0.2 µM; on EGFR mutant L858R/T790M it was < 0.02 µM.

With `C=CC(=O)Nc1cc(Nc2ncc(C)c(-n3cc(CN(C)C)c(C(C)(C)C)n3)n2)c(OC)cc1N1CCOCC1` [Compound 7, N-(5-(4-(3-tert-butyl-4-((dimethylamino)methyl)-1H-pyrazol-1-yl)-5-methylpyrimidin-2-ylamino)-4-methoxy-2-morpholinophenyl)acrylamide], the IC50 at EGFR mutant Del19/T790M was < 0.02 µM; in [3], < 0.02 µM; against EGFR mutant T790M, < 0.02 µM; at EGFR mutant L858R, < 0.02 µM; against SYK it was > 1 µM; on EGFR mutant L858R/T790M, < 0.02 µM.

For `C=CC(=O)Nc1cc(Nc2nccc(-n3cc(CN4CCC4)c(C4CC4)n3)n2)c(OC)cc1N1CCN(C(C)=O)CC1` [Compound 138, N-(2-(4-acetylpiperazin-1-yl)-5-(4-(4-(azetidin-1-ylmethyl)-3-cyclopropyl-1H-pyrazol-1-yl)pyrimidin-2-ylamino)-4-methoxyphenyl)acrylamide], the IC50 was < 0.02 µM on EGFR mutant Del19/T790M; < 0.02 µM in assay [3]; < 0.02 µM on EGFR mutant T790M; < 0.02 µM on EGFR mutant L858R; > 1 µM against SYK; < 0.02 µM on EGFR mutant L858R/T790M.

Regarding `C=CC(=O)Nc1cc(Nc2nccc(-n3cc(CN(C)C)c(-c4ccc(C)cc4)n3)n2)c(OC)cc1N1CCOCC1` [Compound 80, N-(5-(4-(4-((dimethylamino)methyl)-3-p-tolyl-1H-pyrazol-1-yl)pyrimidin-2-ylamino)-4-methoxy-2-morpholinophenyl)acrylamide], the IC50 was < 0.02 µM at EGFR mutant Del19/T790M; < 0.02 µM in assay [3]; < 0.02 µM against EGFR mutant T790M; < 0.02 µM at EGFR mutant L858R; > 1 µM against SYK; < 0.02 µM on EGFR mutant L858R/T790M.

Turning to `C=CC(=O)Nc1cc(Nc2nccc(-n3cc(CN(C)CC)c(C4CC4)n3)n2)c(OC)cc1N1CCOCC1` [Compound 140, N-(5-(4-(3-cyclopropyl-4-((ethyl(methyl)amino)methyl)-1H-pyrazol-1-yl)pyrimidin-2-ylamino)-4-methoxy-2-morpholinophenyl)acrylamide], the IC50 is < 0.02 µM at EGFR mutant Del19/T790M; < 0.02 µM in assay [3]; < 0.02 µM against EGFR mutant T790M; < 0.02 µM at EGFR mutant L858R; > 1 µM on SYK; < 0.02 µM at EGFR mutant L858R/T790M.

With `C=CC(=O)Nc1cc(Nc2nccc(-n3cc(CN(C)C)c(C4CC4)n3)n2)c(OC)cc1N1CCN(C(C)=O)CC1` [Compound 129, N-(2-(4-acetylpiperazin-1-yl)-5-(4-(3-cyclopropyl-4-((dimethylamino)methyl)-1H-pyrazol-1-yl)pyrimidin-2-ylamino)-4-methoxyphenyl)acrylamide], the IC50 at EGFR mutant Del19/T790M was < 0.02 µM; in assay [3], < 0.02 µM; against EGFR mutant T790M it was < 0.02 µM; on EGFR mutant L858R it was < 0.02 µM; at SYK, 0.201 to 1 µM; on EGFR mutant L858R/T790M, < 0.02 µM.

In the case of `C=CC(=O)Nc1cc(Nc2nccc(-n3cc(CN4CCC4)c(C4CC4)n3)n2)c(OC)cc1N(C)CCOC` [Compound 107, N-(5-(4-(4-(azetidin-1-ylmethyl)-3-cyclopropyl-1H-pyrazol-1-yl)pyrimidin-2-ylamino)-4-methoxy-2-((2-methoxyethyl)(methyl)amino)phenyl)acrylamide], the IC50 on EGFR mutant Del19/T790M was < 0.02 µM; in assay [3], < 0.02 µM; against EGFR mutant T790M, < 0.02 µM; at EGFR mutant L858R it was < 0.02 µM; against SYK it was 0.02 to 0.2 µM; at EGFR mutant L858R/T790M it was < 0.02 µM.

For the compound `C=CC(=O)Nc1cc(Nc2ncc(F)c(-n3cc(C)c(CN4CCC4)c3)n2)c(OC)cc1N1CCC1` [Compound 141, N-(2-(azetidin-1-yl)-5-(4-(3-(azetidin-1-ylmethyl)-4-methyl-1H-pyrrol-1-yl)-5-fluoropyrimidin-2-ylamino)-4-methoxyphenyl)acrylamide], the IC50 on EGFR mutant Del19/T790M was < 0.02 µM; in [3], < 0.02 µM; against EGFR mutant T790M, < 0.02 µM; on EGFR mutant L858R, < 0.02 µM; against SYK it was 0.201 to 1 µM; on EGFR mutant L858R/T790M, < 0.02 µM.

In the case of `C=CC(=O)Nc1cc(Nc2ncc(C)c(-n3cc(CN4CCC4)cn3)n2)c(OC)cc1N1CCCN(C)CC1` [Compound 41, N-(5-(4-(4-(azetidin-1-ylmethyl)-1H-pyrazol-1-yl)-5-methylpyrimidin-2-ylamino)-4-methoxy-2-(4-methyl-1,4-diazepan-1-yl)phenyl)acrylamide], the IC50 is < 0.02 µM at EGFR mutant Del19/T790M; < 0.02 µM in assay [3]; < 0.02 µM against EGFR mutant T790M; < 0.02 µM on EGFR mutant L858R; 0.201 to 1 µM at SYK; < 0.02 µM on EGFR mutant L858R/T790M.

For `C=CC(=O)Nc1cc(Nc2ncc(F)c(-n3cc(C)c(CN4CCC4)c3)n2)c(OC)cc1N1CCOCC1` [Compound 60, N-(5-(4-(3-(azetidin-1-ylmethyl)-4-methyl-1H-pyrrol-1-yl)-5-fluoropyrimidin-2-ylamino)-4-methoxy-2-morpholinophenyl)acrylamide], the IC50 at EGFR mutant Del19/T790M is < 0.02 µM; in assay [3], < 0.02 µM; at EGFR mutant T790M it was 0.02 to 0.2 µM; at EGFR mutant L858R it was 0.02 to 0.2 µM; against SYK it was > 1 µM; on EGFR mutant L858R/T790M, < 0.02 µM.

Take `C=CC(=O)Nc1cc(Nc2nccc(-n3cc(CN(C)C)c(-c4ccccc4)n3)n2)c(OC)cc1N(C)C1COC1` [Compound 96, N-(5-(4-(4-((dimethylamino)methyl)-3-phenyl-1H-pyrazol-1-yl)pyrimidin-2-ylamino)-4-methoxy-2-(methyl(oxetan-3-yl)amino)phenyl)acrylamide]: the IC50 was < 0.02 µM on EGFR mutant Del19/T790M; < 0.02 µM in assay [3]; 0.02 to 0.2 µM at EGFR mutant T790M; < 0.02 µM at EGFR mutant L858R; > 1 µM on SYK; < 0.02 µM at EGFR mutant L858R/T790M.
